Active and inactive are the calls of the source. No cut-off for these calls is given here.
How the values were obtained:
Mus musculus [1] = experiment: Antiepileptic activity in ip dosed Swiss albino mouse assessed as dose required to protect against maximum electric shock-induced seizure after 4 hrs; type: functional; settings: read-out: MED
Mus musculus [2] = experiment: Neurotoxicity in ip dosed Swiss albino mouse assessed as dose required for minimal motor impairment after 4 hrs by rotarod test; type: toxicity, organism-based; settings: in vivo
Mus musculus [3] = experiment: Neurotoxicity in ip dosed Swiss albino mouse assessed as dose required for minimal motor impairment after 0.5 hrs by rotarod test; type: toxicity, organism-based; settings: in vivo
Mus musculus [4] = experiment: Antiepileptic activity in ip dosed Swiss albino mouse assessed as protection against subcutaneous pentylenetetrazol-induced clonic seizures at 300 mg/kg, ip after 4 hrs; type: functional, organism-based; design: dose 300 mg/kg
Mus musculus [5] = experiment: Antiepileptic activity in ip dosed Swiss albino mouse assessed as dose required to protect against maximum electric shock-induced seizure after 0.5 hrs; type: functional; settings: read-out: MED
Mus musculus [6] = experiment: Antiepileptic activity in ip dosed Swiss albino mouse assessed as dose required to protect against subcutaneous pentylenetetrazol-induced clonic seizures after 0.5 hrs; type: functional; settings: read-out: MED
Rattus norvegicus [7] = experiment: Antiepileptic activity in Wistar rat assessed as protection against maximum electric shock-induced seizure at 30 mg/kg, po after 0.25 hrs; type: functional
Mus musculus [8] = experiment: Antiepileptic activity in ip dosed Swiss albino mouse assessed as dose required to protect against subcutaneous pentylenetetrazol-induced clonic seizures after 4 hrs; type: functional; settings: read-out: MED
Rattus norvegicus [9] = experiment: Neurotoxicity in Wistar rat assessed as minimal motor impairment at 30 mg/kg, po by rotarod method; type: toxicity, organism-based; design: dose 30 mg/kg, route oral; settings: in vivo
Rattus norvegicus [10] = experiment: Antiepileptic activity in Wistar rat assessed as protection against maximum electric shock-induced seizure at 30 mg/kg, po after 0.5 hrs; type: functional
Rattus norvegicus [11] = experiment: Antiepileptic activity in Wistar rat assessed as protection against maximum electric shock-induced seizure at 30 mg/kg, po after 1 hr; type: functional
Mus musculus [12] = experiment: Antiepileptic activity in ip dosed Swiss albino mouse assessed as protection against subcutaneous pentylenetetrazol-induced clonic seizures at 300 mg/kg, ip after 0.5 hrs; type: functional, organism-based; design: dose 300 mg/kg
Rattus norvegicus [13] = experiment: Antiepileptic activity in Wistar rat assessed as protection against maximum electric shock-induced seizure at 30 mg/kg, po after 2 hrs; type: functional
Rattus norvegicus [14] = experiment: Antiepileptic activity in Wistar rat assessed as protection against maximum electric shock-induced seizure at 30 mg/kg, po after 4 hrs; type: functional
Mus musculus [15] = experiment: Antiepileptic activity in Swiss albino mouse assessed as protection against maximum electric shock-induced seizure at 300 mg/kg, ip after 0.5 hrs; type: functional, organism-based; design: dose 300 mg/kg
Mus musculus [16] = experiment: Neurotoxicity in ip dosed Swiss albino mouse assessed as minimal motor impairment at 300 mg/kg, ip after 4 hrs by rotarod test; type: toxicity, organism-based; design: dose 300 mg/kg, route intraperitoneal; settings: in vivo
Mus musculus [17] = experiment: Neurotoxicity in Swiss albino mouse assessed as minimal motor impairment at 300 mg/kg, ip after 0.5 hrs by rotarod test; type: toxicity, organism-based; design: dose 300 mg/kg, route intraperitoneal; settings: in vivo
Mus musculus [18] = experiment: Antiepileptic activity in Swiss albino mouse assessed as protection against maximum electric shock-induced seizure at 300 mg/kg, ip after 4 hrs; type: functional, organism-based; design: dose 300 mg/kg
Mus musculus [19] = experiment: Antiepileptic activity in ip dosed Swiss albino mouse assessed as protection against subcutaneous pentylenetetrazol-induced clonic seizures at 30 to 100 mg/kg, ip after 0.5 hrs; type: functional; settings: sc, dose mg/kg 30-100, read-out: MED

## O=C(/N=C/c1ccccc1Cl)Nc1ccc2c(c1)C(=O)C(=O)N2CN1CCCCC1
Mus musculus [1]
  minimal effective dose: 300 mg/kg
Mus musculus [2]
  MTC: 300 mg/kg
Mus musculus [3]
  MTC: 100 mg/kg
Mus musculus [4]
  Activity: inactive
Mus musculus [5]
  minimal effective dose: 100 mg/kg
Mus musculus [6]
  minimal effective dose: 300 mg/kg

## O=C(/N=C/c1ccc(Br)cc1)Nc1ccc2c(c1)C(=O)C(=O)N2CN1CCCCC1
Rattus norvegicus [7]
  Activity: 25%
Mus musculus [1]
  minimal effective dose: 300 mg/kg
Mus musculus [2]
  MTC: 300 mg/kg
Mus musculus [3]
  MTC: 100 mg/kg
Mus musculus [8]
  minimal effective dose: 300 mg/kg
Rattus norvegicus [9]
  Activity: Non-toxic
Rattus norvegicus [10]
  Activity: 50%
Rattus norvegicus [11]
  Activity: 50%
Mus musculus [5]
  minimal effective dose: 30 mg/kg
Mus musculus [12]
  Activity: inactive
Rattus norvegicus [13]
  Activity: 100%
Rattus norvegicus [14]
  Activity: 100%

## O=C(/N=C/c1ccc(F)cc1)Nc1ccc2c(c1)C(=O)C(=O)N2CN1CCCCC1
Mus musculus [1]
  minimal effective dose: 300 mg/kg
Mus musculus [2]
  MTC: 300 mg/kg
Mus musculus [3]
  MTC: 300 mg/kg
Mus musculus [4]
  Activity: inactive
Mus musculus [5]
  minimal effective dose: 100 mg/kg
Mus musculus [6]
  minimal effective dose: 100 mg/kg

## O=C(/N=C/c1cccc([N+](=O)[O-])c1)Nc1ccc2c(c1)C(=O)C(=O)N2CN1CCOCC1
Mus musculus [1]
  minimal effective dose: 300 mg/kg
Mus musculus [4]
  Activity: inactive
Mus musculus [12]
  Activity: inactive
Mus musculus [15]
  Activity: inactive

## O=C(/N=C/c1ccccc1)Nc1ccc2c(c1)C(=O)C(=O)N2CN1CCOCC1
Mus musculus [1]
  minimal effective dose: 300 mg/kg
Mus musculus [4]
  Activity: inactive
Mus musculus [12]
  Activity: inactive
Mus musculus [15]
  Activity: inactive

## CCC1(C)CC(=O)NC1=O (stereo unspecified) [ETHOSUXIMIDE]
Mus musculus [8]
  minimal effective dose: 300 mg/kg
Mus musculus [16]
  Activity: Non-toxic
Mus musculus [17]
  Activity: Non-toxic
Mus musculus [18]
  Activity: inactive
Mus musculus [15]
  Activity: inactive
Mus musculus [6]
  minimal effective dose: 100 mg/kg

## O=C(/N=C/c1ccc(Br)cc1)Nc1ccc2c(c1)C(=O)C(=O)N2CN1CCOCC1
Mus musculus [1]
  minimal effective dose: 300 mg/kg
Mus musculus [4]
  Activity: inactive
Mus musculus [16]
  Activity: Non-toxic
Mus musculus [17]
  Activity: Non-toxic
Mus musculus [5]
  minimal effective dose: 100 mg/kg
Mus musculus [6]
  minimal effective dose: 300 mg/kg

## O=C(/N=C/c1ccccc1Cl)Nc1ccc2c(c1)C(=O)C(=O)N2CN1CCOCC1
Mus musculus [1]
  minimal effective dose: 300 mg/kg
Mus musculus [3]
  MTC: 300 mg/kg
Mus musculus [4]
  Activity: inactive
Mus musculus [16]
  Activity: Non-toxic
Mus musculus [5]
  minimal effective dose: 100 mg/kg
Mus musculus [6]
  minimal effective dose: 300 mg/kg

## O=C(/N=C/c1ccccc1)Nc1ccc2c(c1)C(=O)C(=O)N2CN1CCCCC1
Mus musculus [4]
  Activity: inactive
Mus musculus [18]
  Activity: inactive
Mus musculus [15]
  Activity: inactive
Mus musculus [6]
  minimal effective dose: 300 mg/kg

## O=C(/N=C/c1ccc(O)cc1)Nc1ccc2c(c1)C(=O)C(=O)N2CN1CCCCC1
Mus musculus [8]
  minimal effective dose: 300 mg/kg
Mus musculus [16]
  Activity: Non-toxic
Mus musculus [17]
  Activity: Non-toxic
Mus musculus [5]
  minimal effective dose: 300 mg/kg
Mus musculus [18]
  Activity: inactive
Mus musculus [12]
  Activity: inactive

## O=C(/N=C/c1ccc(Cl)cc1)Nc1ccc2c(c1)C(=O)C(=O)N2CN1CCCCC1
Mus musculus [1]
  minimal effective dose: 300 mg/kg
Mus musculus [2]
  MTC: 300 mg/kg
Mus musculus [4]
  Activity: inactive
Mus musculus [17]
  Activity: Non-toxic
Mus musculus [5]
  minimal effective dose: 100 mg/kg
Mus musculus [6]
  minimal effective dose: 300 mg/kg

## O=C(/N=C/c1ccc(O)cc1)Nc1ccc2c(c1)C(=O)C(=O)N2CN1CCOCC1
Rattus norvegicus [7]
  Activity: 0%
Mus musculus [2]
  MTC: 300 mg/kg
Mus musculus [19]
  minimal effective dose: 30 mg/kg
Mus musculus [8]
  minimal effective dose: 300 mg/kg
Rattus norvegicus [9]
  Activity: Non-toxic
Rattus norvegicus [10]
  Activity: 0%
Mus musculus [17]
  Activity: Non-toxic
Rattus norvegicus [11]
  Activity: 0%
Mus musculus [5]
  minimal effective dose: 300 mg/kg
Mus musculus [18]
  Activity: inactive
Rattus norvegicus [13]
  Activity: 0%
Rattus norvegicus [14]
  Activity: 50%

## O=C(/N=C/c1ccc(Cl)cc1)Nc1ccc2c(c1)C(=O)C(=O)N2CN1CCOCC1
Rattus norvegicus [7]
  Activity: 25%
Mus musculus [1]
  minimal effective dose: 100 mg/kg
Mus musculus [8]
  minimal effective dose: 300 mg/kg
Rattus norvegicus [9]
  Activity: Non-toxic
Rattus norvegicus [10]
  Activity: 50%
Mus musculus [16]
  Activity: Non-toxic
Mus musculus [17]
  Activity: Non-toxic
Rattus norvegicus [11]
  Activity: 50%
Mus musculus [5]
  minimal effective dose: 30 mg/kg
Mus musculus [6]
  minimal effective dose: 300 mg/kg
Rattus norvegicus [13]
  Activity: 100%
Rattus norvegicus [14]
  Activity: 100%

## O=C(/N=C/c1ccc(F)cc1)Nc1ccc2c(c1)C(=O)C(=O)N2CN1CCOCC1
Rattus norvegicus [7]
  Activity: 25%
Mus musculus [1]
  minimal effective dose: 100 mg/kg
Mus musculus [3]
  MTC: 300 mg/kg
Mus musculus [8]
  minimal effective dose: 300 mg/kg
Rattus norvegicus [9]
  Activity: Non-toxic
Rattus norvegicus [10]
  Activity: 50%
Mus musculus [16]
  Activity: Non-toxic
Rattus norvegicus [11]
  Activity: 50%
Mus musculus [5]
  minimal effective dose: 30 mg/kg
Mus musculus [6]
  minimal effective dose: 100 mg/kg
Rattus norvegicus [13]
  Activity: 100%
Rattus norvegicus [14]
  Activity: 100%

## O=C(/N=C/c1ccc([N+](=O)[O-])cc1)Nc1ccc2c(c1)C(=O)C(=O)N2CN1CCCCC1
Rattus norvegicus [7]
  Activity: 0%
Mus musculus [1]
  minimal effective dose: 100 mg/kg
Mus musculus [2]
  MTC: 300 mg/kg
Mus musculus [3]
  MTC: 300 mg/kg
Mus musculus [8]
  minimal effective dose: 300 mg/kg
Rattus norvegicus [9]
  Activity: Non-toxic
Rattus norvegicus [10]
  Activity: 50%
Rattus norvegicus [11]
  Activity: 25%
Mus musculus [5]
  minimal effective dose: 30 mg/kg
Mus musculus [6]
  minimal effective dose: 300 mg/kg
Rattus norvegicus [13]
  Activity: 0%
Rattus norvegicus [14]
  Activity: 0%

## COc1ccc(/C=N/C(=O)Nc2ccc3c(c2)C(=O)C(=O)N3CN2CCOCC2)cc1
Mus musculus [2]
  MTC: 300 mg/kg
Mus musculus [3]
  MTC: 300 mg/kg
Mus musculus [8]
  minimal effective dose: 300 mg/kg
Mus musculus [18]
  Activity: inactive
Mus musculus [12]
  Activity: inactive
Mus musculus [15]
  Activity: inactive

## Cc1ccc(/C=N/C(=O)Nc2ccc3c(c2)C(=O)C(=O)N3CN2CCOCC2)cc1
Mus musculus [8]
  minimal effective dose: 300 mg/kg
Mus musculus [16]
  Activity: Non-toxic
Mus musculus [17]
  Activity: Non-toxic
Mus musculus [5]
  minimal effective dose: 300 mg/kg
Mus musculus [18]
  Activity: inactive
Mus musculus [12]
  Activity: inactive

## O=C(/N=C/c1ccc([N+](=O)[O-])cc1)Nc1ccc2c(c1)C(=O)C(=O)N2CN1CCOCC1
Mus musculus [8]
  minimal effective dose: 300 mg/kg
Mus musculus [16]
  Activity: Non-toxic
Mus musculus [17]
  Activity: Non-toxic
Mus musculus [5]
  minimal effective dose: 100 mg/kg
Mus musculus [18]
  Activity: inactive
Mus musculus [12]
  Activity: inactive

## O=C1NC(=O)C(c2ccccc2)(c2ccccc2)N1 [PHENYTOIN]
Rattus norvegicus [7]
  Activity: 25%
Mus musculus [1]
  minimal effective dose: 30 mg/kg
Mus musculus [2]
  MTC: 100 mg/kg
Mus musculus [3]
  MTC: 100 mg/kg
Rattus norvegicus [9]
  Activity: Non-toxic
Mus musculus [4]
  Activity: inactive
Rattus norvegicus [10]
  Activity: 100%
Rattus norvegicus [11]
  Activity: 75%
Mus musculus [5]
  minimal effective dose: 30 mg/kg
Mus musculus [12]
  Activity: inactive
Rattus norvegicus [13]
  Activity: 75%
Rattus norvegicus [14]
  Activity: 75%

## Cc1ccc(/C=N/C(=O)Nc2ccc3c(c2)C(=O)C(=O)N3CN2CCCCC2)cc1
Mus musculus [4]
  Activity: inactive
Mus musculus [18]
  Activity: inactive
Mus musculus [15]
  Activity: inactive
Mus musculus [6]
  minimal effective dose: 300 mg/kg

## O=C(/N=C/c1cccc([N+](=O)[O-])c1)Nc1ccc2c(c1)C(=O)C(=O)N2CN1CCCCC1
Mus musculus [8]
  minimal effective dose: 300 mg/kg
Mus musculus [18]
  Activity: inactive
Mus musculus [12]
  Activity: inactive
Mus musculus [15]
  Activity: inactive

## COc1ccc(/C=N/C(=O)Nc2ccc3c(c2)C(=O)C(=O)N3CN2CCCCC2)cc1
Mus musculus [1]
  minimal effective dose: 300 mg/kg
Mus musculus [4]
  Activity: inactive
Mus musculus [15]
  Activity: inactive
Mus musculus [6]
  minimal effective dose: 300 mg/kg

— ChEMBL document CHEMBL1914354, “Design, synthesis and antiepileptic properties of novel 1-(substituted benzylidene)-3-(1-(morpholino/piperidino methyl)-2,3-dioxoindolin-5-yl)urea derivatives” (Eur J Med Chem, 2011)
